Results published in US6716872B2, “Substituted pyrrolidine-2,3,4-trione 3-oxime derivatives which are active as NMDA receptor antagonists” (Gruenenthal GmbH, priority 1999, dated 2004).

Columns and labels:
male albino mice (NMRI) = assay: Formalin test in mice, second (late) phase; type: in vivo; conditions: second (late) phase of formalin test
Protocol: The studies for determination of the antinociceptive action of the compounds according to the invention were carried out in the formalin test in male albino mice (NMRI, 25-35 g, Iffa Credo, Belgium).
The compounds according to the invention were investigated in the second phase of the formalin test to obtain information on the actions of the compounds according to the invention on chronic/inflammatory pain.
By a single subcutaneous formalin injection (20 μl, 1% aqueous solution) into the dorsal side of the right hind paw of freely mobile test animals, a nociceptive reaction was induced, which manifests itself in significant licking and biting of the paw affected.
For the investigation period in the second (late) phase of the formalin test, the nociceptive behavior was recorded continuously by observing the animals. […] After injection of substances which have an antinociceptive action in the formalin test, the modes of behaviour described for the animals are reduced, and possibly even eliminated. […] The behaviour of the rats after administration of the substance was compared with a control group (10 mice per substance dose).
On the basis of the quantification of the pain properties, the action of the substance in the formalin test was determined as a change from the control in per cent. The ED50 calculations were made by means of regression analysis. […]

[1] = target: T1, glycine binding site of the NMDA receptor channel (Rattus norvegicus, UniProt P35439); assay: Receptor binding test, displacement of (3H)-MDL 105.519 on rat cerebral membrane homogenates; conditions: rat cortex and hippocampus membranes, 1 nmol/l (3H)-MDL 105.519; Ki from IC50 by Cheng-Prusoff
T1 construct: from tissue; host or cells: rat brain cortex and hippocampus membrane homogenate (male Wistar rats, Charles River)
Protocol: Studies for determination of the affinity of the substituted pyrrolidine-2,3,4-trione 3-oxime derivatives of the general formula I according to the invention for the glycine binding site of the NMDA receptor channel were carried out on cerebral membrane homogenates (homogenate of the cortex and hippocampus area from the brain of male rats, Wistar strain, Charles River, WIGA GmbH, Sulzbach, Germany) by the method of Baron B. M. et al, J. Pharmacol. Exp. Ther., vol. 279, pp.62-68 (1996). […]
In the binding test, 50 mmol/l TRIS-acetate buffer pH 7.0 was employed as the buffer and 1 nmol/l (^3H)-MDL 105.519 (Baron B. M. et al, J. Pharmacol. Exp. Ther., vol. 279, pp. 62-68 (1996)) was employed as the radioactive ligand. The proportion of non-specific binding was determined in the presence of 1 mmol/l glycine.
In further batches, the compounds according to the invention were added in concentration series and the displacement of the radioactive ligand from its specific binding to the glycine binding site of the NMDA receptor channel was determined. […]

male NMRI mice = assay: Phenylquinone-induced writhing test in the mouse; type: in vivo
Protocol: The study of the analgesic activity was also carried out in the phenylquinone-induced writhing in the mouse (modified by I. C. Hendershot et al, (1959) J. Pharmacol. Exp. Ther., vol. 125, pp. 237-240). Male NMRI mice weighing 25 to 30 g (Iffa, Credo, Belgium, were used for this. Groups of 10 animals per substance dose received 0.3 ml/mouse of a 0.02% aqueous solution of phenylquinone (phenylbenzoquinone, Sigma, Deisenhofen; preparation of the solution with the addition of 5% ethanol and storage in a water bath at 45° C.) administered intraperitoneally 10 minutes after intravenous administration of the particular compound. The animals were placed individually in observation cages. The number of pain-induced stretching movements (so-called writhing reactions=straightening of the body with stretching of the hind extremities) was counted by means of a push-button counter for 5 to 20 minutes after the administration of phenylquinone. Animals which received only physiological saline solution were also run as a control. All the substances were tested in the standard dosage of 10 mg/kg of body weight of the mouse. The percentage inhibition (% inhibition) of the writhing reaction by a substance was calculated according to the following equation: [formula]
For some of the compounds according to the invention the ED50 values with the 95% confidence range of the writhing reaction were calculated by means of regression analysis (evaluation program from Martens EDV Service, Eckental) from the dose-dependent decrease in the writhing reactions compared with phenylquinone control groups investigated in parallel.
The study of the analgesic activity was carried out in the phenylquinone-induced writhing in mice as described above.

SMILES | melting point [°C] | % change from the control at 10 mg/kg (male albino mice (NMRI)) [%] | Ki [1] [nM] | % inhibition of the writhing reaction at 10 mg/kg intravenously (male NMRI mice) [%]
COC(=C1NC(=O)C(=NO)C1=O)c1ccccc1 [Example 1, 5-(Methoxyphenylmethylene)-pyrrolidine-2,3,4-trione 3-oxime] | 174 | – | – | –
O=C1NC(=C(Br)c2ccccc2)C(=O)C1=NO [Example 2, 5-(Bromophenylmethylene)-pyrrolidine-2,3,4-trione 3-oxime] | 158 | 36.3 | 430 | –
O=C1NC(=Cc2ccccc2Cl)C(=O)C1=NO [Example 4, 5-(2-Chlorobenzylidene)-pyrrolidine-2,3,4-trione 3-oxime] | 176 | – | – | 55
O=C1NC(=Cc2ccc(Cl)cc2)C(=O)C1=NO [Example 5, 5-(4-Chlorobenzylidene)-pyrrolidine-2,3,4-trione 3-oxime] | 190 | – | – | 50
O=C1NC(=Cc2cccc(Cl)c2Cl)C(=O)C1=NO [Example 6, 5-(2,3-Dichlorobenzylidene)-pyrrolidine-2,3,4-trione 3-oxime] | – | – | – | 52
O=C1NC(=Cc2ccc(Cl)cc2Cl)C(=O)C1=NO [Example 7, 5-(2,4-Dichlorobenzylidene)-pyrrolidine-2,3,4-trione 3-oxime] | 180 | – | – | 46
O=C1NC(=Cc2c(Cl)cccc2Cl)C(=O)C1=NO [Example 8, 5-(2,6-Dichlorobenzylidene)-pyrrolidine-2,3,4-trione 3-oxime] | 232 | – | – | 51
O=C1NC(=Cc2cccc(Cl)c2)C(=O)C1=NO [Example 9, 5-(3-Chlorobenzylidene)-pyrrolidine-2,3,4-trione 3-oxime] | 185 | – | – | 81
